# Measurements reported in US20060063930A1, “Compositions and methods comprising proteinase activated receptor antagonists” (priority 2004, published 2006).
# Where a name gives a salt, the structure may show the parent alone. Where no end group is shown, it is not given here. [ ]: non-standard residue; d: D form. Hyp = O=C(O)[C@@H]1C[C@@H](O)CN1; Nip = nipecotic acid residue; Orn = NCCC[C@H](N)C(=O)O; Dab = NCC[C@H](N)C(=O)O
# Tested on: PAR-2
# Test: Inhibition of PAR-2 activating peptide (AP2) calcium signaling in cells pretreated with antagonist
# Assay type: cell-based, human
# Design: key to PAR-2 AP2 Signaling Treated/Control (T/C) / PAR-2 AP2 Signaling Treated/Control: AUC of calcium mobilization, treated ÷ control wells
# Details: mimetic antagonists; AUC of calcium mobilization treated/control; initially screened at 1 mM compound
# Method: In order to assess the potential of peptides and molecules selected above to block PAR-2 signaling, cells were pretreated with potential antagonist peptides for a predetermined amount of time and were subsequently treated with various GPCR agonists. Confluent Lewis lung carcinoma (LLC) cells were loaded for 30-60 minutes with the fluorescent dye Fluo-4. Final concentration 4 uM Fluo-4, 0.02% pluronic acid in physiological buffer. Cells were then washed with assay buffer, (HBSS containing 1 mM CaCl2, 1 mM MgSO4, and 2.5 mM probenecid). Cells were stimulated with various doses of PAR-2 activating peptide, PAR-1 activating peptide or ATP. Fluorescence was monitored using a Wallac 1470 fluorescent plate reader. (See Al-ani et. al Journal of Pharmacology and Experimental Therapeutics 290:2, 753-760). Additional compound screening was performed using U87-MG human glioma cells. In this assay cells were labeled with FLIPR Calcium 3 dye (Component A), which was dissolved in 10 mls of Assay Buffer without Probenecid. Loading buffer was prepared by diluting Component A with an additional 90 mls of Assay Buffer without Probenecid, giving a total volume of a 100 ml. For plate loading, 11 mls of FLIPR Calcium 3 dye (Component A) is placed into a 15 ml conical tube+110 μl of 250 mM Probenecid, at a final in-well working volume of 2.5 mM. Finally, 50 μl of Calcium 3 dye was added wells containing 100 μl media, and incubated 1 hr, 37° C., 5% CO2. Calcium signaling was then measured using a Flexstation II (Molecular Devices) following manufacturer's instructions.
# Potential antagonist compounds were initially screened at 1 mM compound concentration. Those compounds with activity were then subjected to additional confirmatory testing. Activity is reported as treated/controlled (T/C) where the area under the curve (AUC) of calcium mobilization plots in treated wells is divided by the AUC of calcium mobilization plots in control wells to generate a measure of inhibition.
row,Compound,PAR-2 AP2 Signaling Treated/Control
1,"NCCCOc1ccc(C(=O)NCC2CCCCC2)cc1 [ENMD-1411, 4-(3-aminopropoxy)-N-(cyclohexylmethyl)-benzamide]",0.43
2,NCCCCCCn1cccc1C(=O)NCC1CCCCC1 [ENMD-1570],0.05
3,CC(C)CC(=O)N1CC2CN(C(=O)Cc3ccc(N)cc3)CC2C1 (stereo not drawn) [ENMD-1763],0.83
4,"Cl.O=C(CC1CCCCC1)N1CCN(C(=O)C2CNCCO2)CC1 (stereo not drawn) [ENMD-1780, N^1-2-cyclohexylethanoyl-N-4-morpholine-2-carbonyl-piperazine hydrochloride]",0.86
5,"NCCCCNC(=O)c1ccc(OCC2CCCCC2)cc1 [ENMD-1406, N-(4-aminobutyl)-4-(cyclohexylmethoxy)-benzamide]",0.24
6,"Nc1ccc(CC(=O)N2CC3CN(C(=O)CC4CCCCC4)CC3C2)cc1 (stereo not drawn) [ENMD-1777, 1-(2-(2-(4-aminophenyl)acetyl-hexahydro-pyrrolo[3,4-c]pyrrol-5-(1H)-yl)-2-cyclohexyl)ethan-1-one]",0.64
7,"CC(C)CCN1C(C(=O)NCCCCCCN)CCS1(=O)=O (stereo not drawn) [ENMD-1539, N-(isoamyl)isothiasolidine-1,1-dioxide-3-carboxylic acid-6-aminohexylamide]",0.25
8,"Br.CC(C)CC(=O)NCCNC(=O)CCCCCN [ENMD-1393, N-(2-(3-methylbutanamido)ethyl)-6-aminohexan-amide hydrobromide]",0.81
9,"NCCCCCCNc1nc2ccc(C(=O)NCC3CCCCC3)cc2[nH]1 [ENMD-1553, 2-(6-Amino-hexylamino)-3H-benzoimidazole-5-carboxylic acid cyclohexylmethyl-amide]",0.81
10,"NCCCCCC(=O)N[C@@H]1CC[C@H](C(=O)NCC2CCCCC2)C1 [ENMD-1505, N-cyclohexylmethyl-3S-(6-aminohexanamido)-cyclopentane-1R-carboxamide]",0.19
11,"N=C(N)NCCCCCC(=O)N1CCN(C(=O)Cc2ccccc2)CC1 [ENMD-1077, 4-phenylacetoyl-piperazin-1-(5′-carbamoyl-pentylguanidine)]",0.80
12,"O=C(Cc1cccnc1)N1CCN(C(=O)CC2CCCCC2)CC1 [ENMD-1074, 1-(4-(2-cyclohexylacetyl)piperazin-1-yl)-2-(pyridin-3-yl)-acetaldehyde]",0.35
13,"NCCCNC(=O)c1ccc(OCC2CCCCC2)cc1 [ENMD-1409, N-(3-aminopropyl)-4-(cyclohexylmethoxy)-benzamide]",0.45
14,"NCCCCCC(=O)Nc1nc(CC(=O)NCC2CCCCC2)cs1 [ENMD-1560, 6-amino-hexanoic acid {4-[(cyclohexylmethyl-carbamoyl)-methyl]-thiazol-2-yl}-amide]",0.48
15,"CC(C)CNC(=O)c1ccc(-c2ccc(NC(=O)CCCCCN(C)C)cc2)cc1 [ENMD-1529, 4′-(6-Dimethylamino-hexanoylamino)-biphenyl-4-carboxylic acid isobutyl-amide]",0.35
16,"CC(C)CCNC(=O)C1CCS(=O)(=O)N1CCCCCCN (stereo not drawn) [ENMD-1546, N-(6-aminohexyl)isothiazolidine-1,1-dioxide-3-carboxylic acid isoamylamide]",0.97
17,"NCCCCCC(=O)NCCNC(=O)CC1CCCCC1 [ENMD-1417, N-(2-(2-cyclohexylacetamido)ethyl)-6-aminohexan-amide]",0.38
18,"O=C(Cc1cn(CCCCN2C(=O)c3ccccc3C2=O)cn1)NC1CCCCC1 [ENMD-1535, N-cyclohexyl-2-(1-(4-(1,3-dioxoisoindolin-2-yl)butyl)-1H-imidazol-4-yl)acetamide]",0.46
19,"NCCCCCCn1c(=O)n(CCC2CCCCC2)c2ccccc21 [ENMD-1518, 1-(6-aminohexyl)-3-[(2-cyclohexyl)ethyl]benzimidazol-(2)-one]",0.58

row,Compound,PAR-2 AP2 Signaling Treated/Control
1,"CC(C)CNC(=O)[C@H]1CC[C@@H](NC(=O)CCCCCN)C1 [ENMD-1536, N-isobutyl-3S-(6-aminohexanamido)-cyclopentane-1R-carboxamide]",0.42
2,"NCCCCC(=O)NCc1cc(C(=O)NCC2CCCCC2)no1 [ENMD-1558, 5-[(5-amino-pentanoylamino)-methyl]-isoxazole-3-carboxylic acid cyclohexylmethyl-amide]",0.60
3,"NCCCCCC(=O)N1CCN(C(=O)CC2CCCCC2)CC1 [ENMD-1073, N′-(2-cyclohexylethanoyl)-N^4-(6-aminohexanoyl)piperazine]",0.56
4,"CC(C)CCc1cn(CCCCCCN)nn1 [ENMD-1519, 1-(6-aminohexyl)-4-(3-methylbutyl)-1,2,3-triazole]",0.65
5,"Cl.N[C@@H]1CCC[C@H](C(=O)N2CCN(C(=O)CC3CCCCC3)CC2)C1 [ENMD-1774, N^1-2-cyclohexylethanoyl-N-4-cis-3-amino-cyclohexane-carbonyl piperazine hydrochloride]",0.75
6,"CC(C)CC(=O)NC1CN(C(=O)CCCCCN)C1 [ENMD-1516, N-(6-amino-1-hexanoylazetidin3-yl)-3-methylbutanamide]",0.87
7,"CCCC(=O)N1CCN(C(=O)CCCCCN)CC1 [ENMD-1036, N^1-butanoyl-N-4-[6′-aminohexanoyl]-piperazine]",0.55
8,"CC(C)CNC(=O)c1cc(NC(=O)CCCCCN)[nH]n1 [ENMD-1533, 5-(6-Amino-hexanoylamino)-1H-pyrazole-3-carboxylic acid isobutyl-amide]",0.68
9,"O=C(Cc1ccccc1)N1CCN(C(=O)Cc2cnc[nH]2)CC1 [ENMD-1076, 1-(4-(2-(1H-imidazol-4-yl)acetyl)piperazin-1-yl)-1-benzyl-amide]",0.14
10,"O=C(NCCC1CCNCC1)c1cnc(NCC2CCCCC2)cn1 [ENMD-1572, 4-(piperidinethyl)-6-cyclohexanemethylamino-2-pyrazine amide]",0.10
11,"CC(C)CC(=O)N1CCN(C(=O)CCCCCNC(=N)N)CC1 [ENMD-1067, 4-(3-methylbutanoyl)piperazin-1-(5′-carbamoyl-pentylguanidine)]",0.77
12,"CC(C)CC(=O)NCc1cc(C(=O)NCCCCCCN)no1 [ENMD-1556, 5-[(3-methyl-butyrylamino)-methyl]-isoxazole-3-carboxylic acid (6-amino-hexyl)-amide]",0.57
13,"Cl.N[C@H]1CC[C@H](C(=O)N2CCN(C(=O)CC3CCCCC3)CC2)C1 [ENMD-1779, N1-2-cyclohexylethanoyl-N-4-(1R,3R)-1-amino-cyclopentane-3-carbonyl piperazine hydrochloride]",0.89
14,NCCCCNC(=O)c1ccc(NCC2CCCCC2)nc1 [ENMD-1538],0.48
15,"NCCCCCC(=O)Nc1cc(C(=O)NCC2CCCCC2)n[nH]1 [ENMD-1534, 5-(6-amino-hexanoylamino)-1H-pyrazole-3-carboxylic acid cyclohexylmethyl-amide]",0.44
16,"NCCCCCCNC(=O)c1cc(NC(=O)CC2CCCCC2)[nH]n1 [ENMD-1551, 5-(2-cyclohexyl-acetylamino)-1H-pyrazole-3-carboxylic acid (6-amino-hexyl)-amide]",0.66
17,"CC(C)CC(=O)Nc1ccc(NC(=O)CCCN)cc1 [ENMD-1397, N-(4-(3-methylbutanamido)phenyl)-4-aminobutyl-amide hydrobromide]",0.15
18,"NCCCCCC(=O)N1CCOC(C(=O)NCC2CCCCC2)C1 (stereo not drawn) [ENMD-1523, 4-(6-Amino-hexanoyl)-morpholine-2-carboxylic acid cyclohexylmethyl-amide]",0.54

# Same assay, conditions: peptides; AUC of calcium mobilization treated/control; initially screened at 1 mM compound
row,Compound,PAR-2 AP2 Signaling Treated/Control (T/C)
1,LIGY [ENMD-1051],0.83
2,dL-dI-dG-dK [ENMD-1032],0.44
3,LIGK-amide (LIGK-NH2) [ENMD-1020],0.54
4,L-Nip-GK (L[Nip]GK) [ENMD-1059],0.97
5,dI-dG-dK [ENMD-1383],0.48
6,LIGQ [ENMD-1048],0.59
7,"LIG-Orn (LIG[Orn]) [ENMD-1028, Orn=ornithine]",0.36
8,L-HyP-K (Leu-[Hyp]-Lys) [ENMD-1060],1.29
9,LIGT [ENMD-1050],0.70
10,L-HyP-GK (L[Hyp]GK) [ENMD-1061],1.16
11,LIG-Dab (LIG[Dab]) [ENMD-1026],0.23
